Source: paper PMC11637438, “Chickpea NCR13 disulfide cross-linking variants exhibit profound differences in antifungal activity and modes of action” (PLOS Pathogens, 2024)
Bridge positions count the residues as written; N and C are the ends. Peptide text beside a SMILES is read from it.

Legend:
[1] = test system: B. cinerea; assay type: cell-based, Botrytis cinerea; settings: B. cinerea
Protocol: (§1) B. cinerea strain T4 was cultured in V8 medium for 3 weeks at 25°C. Fungal spores were collected by flooding the fungal growth plates with water and scraped using a sterile spreader. The spore suspension was filtered through two layers of Miracloth, followed by centrifugation at 12,000 g for 2 minutes (min) and subsequently washed twice with sterile water. Lastly, fungal spores were resuspended in Synthetic Fungal Media (SFM). The spore suspension was adjusted to the desired spore density of about 10^5 spores/mL using a hemocytometer. Fusarium virguliforme (F. virguliforme) was grown and maintained regularly in potato dextrose agar (PDA) (Difco Laboratories) medium. Two weeks old F. virguliforme plates were used to collect spores as described above for B. cinerea followed by centrifugation and washing steps. Spores were counted using a hemocytometer and adjusted to the final concentration of 10^5 spores/mL in 2X SFM media. Sclerotinia sclerotiorum obtained from the field of pennycress in Illinois was grown on PDA medium at room temperature.
The antifungal activity of NCR13 against fungal pathogens was determined using the resazurin cell viability assay, as described previously. Briefly, 45 μL of each peptide dilution (0, 0.09, 0.1875, 0.375, 0.75, 1.5, 3, and 6 μM) was added to each well of the microtiter plate containing 45 μL (~10^5 spores/mL) of spore suspension. Three biological replicates were used for each treatment and the experiments were repeated three times. Resazurin at 0.1% (w/v) was added to each well after incubation for 48 h. Images were taken at ~24 h. The Minimum Inhibitory Concentration (MIC) for each peptide denotes the lowest concentration at which the peptide halts the growth of fungus evident through a lack of color change from blue to […]. The in vitro antifungal activity of NCR13_PFVs against S. sclerotiorum was determined using a 24-well plate assay as previously described. Mycelial plugs (1 mm in diameter) cut from the growing edge of the two day-old actively growing colony were transferred from PDA media to a series of wells containing 250 μL of SFM.

[2] = test system: Fusarium virguliforme; assay: In vitro antifungal assay, resazurin cell viability (MIC); assay type: cell-based; settings: resazurin assay in SFM, ~10^5 spores/mL
Protocol: as §1
(§2) The antifungal activity of NCR13 against fungal pathogens was determined using the resazurin cell viability assay, as described previously. […] The in vitro antifungal activity of NCR13_PFVs against S. sclerotiorum was determined using a 24-well plate assay as previously described. […]

[3] = test system: Sclerotinia sclerotiorum; assay: In vitro antifungal assay, 24-well plate with mycelial plugs (MIC); assay type: cell-based; settings: mycelial plugs in 250 μL SFM
Protocol: as §1, §2

[4] = test system: B. cinerea; assay type: in vivo, Botrytis cinerea on tomato (Solanum lycopersicum); settings: 3 μM peptide sprayed on pre-inoculated four-week-old tomato plants; 5 leaves per plant, 4 plants
Protocol: To test the curative antifungal activity of peptides against B. cinerea, 4-week-old pepper and tomato plants were used. Plants were first sprayed with 1 mL of B. cinerea spores (about 5 × 10^4) suspended in SFM. After 8 h of B. cinerea challenge, 2 mL of NCR13_PFV1 or NCR13_PFV2 (3.0 and 1.5 μM) were sprayed per plant. Control plants were sprayed with 2 mL of water. All plants were placed in a high humid environment for 72 h. Plants were imaged at 72 h after infection in white light and high-resolution fluorescence images were taken using CropReporter (PhenoVation). The quantification of plant health was carried out using the calculated Fv/Fm (maximum quantum yield of photosystem II) images of CropReporter showing the efficiency of photosynthesis in false colors.
For the curative assay using pepper and tomato plants, pictures of whole plants and detached leaves were taken as described above. […] Four plants were used per treatment and for each plant the disease was assessed per leaf. Besides disease severity (DS), the inhibition of disease by treatment was also evaluated. […]

[5] = test system: trypsin; settings: 20-fold less (in mass) trypsin, room temperature, 1 h, read-out mass spectrometry

CC[C@H](C)[C@@H]1NC(=O)[C@@H]2CSSC[C@H](NC(=O)[C@@H]3CCCN3C(=O)[C@H](CCCCN)NC(=O)[C@@H](NC(=O)[C@H](C)N)[C@@H](C)O)C(=O)N[C@@H](CCC(N)=O)C(=O)N[C@@H](CO)C(=O)N[C@@H](CC(=O)O)C(=O)N[C@@H](CCCCN)C(=O)N[C@@H](CC(=O)O)C(=O)N[C@H]3CSSC[C@H](NC(=O)[C@H](Cc4ccccc4)NC(=O)CNC(=O)[C@H](CC(N)=O)NC1=O)C(=O)N[C@@H](CCCCN)C(=O)N[C@H](C(=O)N[C@H](C(=O)N[C@@H](CCCNC(=N)N)C(=O)O)C(C)C)CSSC[C@H](NC(=O)[C@H](C)NC(=O)[C@H](Cc1ccccc1)NC(=O)[C@H](CCCCN)NC(=O)[C@H](CCCCN)NC3=O)C(=O)N[C@@H](CCCNC(=N)N)C(=O)N[C@@H](CCCCN)C(=O)N1CCC[C@H]1C(=O)N[C@@H](CCCCN)C(=O)N[C@@H](C(C)C)C(=O)N1CCC[C@H]1C(=O)N[C@@H](CCCCN)C(=O)N2 [NCR13_PFV1] (H-ATKPCQSDKDCKKFACRKPKVPKCINGFCKCVR-OH; disulfide 5-24, 11-29, 16-31)
Minimal Inhibitory Concentration (MIC) ([1]; resazurin assay in SFM, ~10^5 spores/mL, resazurin added after 48 h, three biological replicates): 0.09 µM
MIC in SFM+100 mM NaCl ([1]; synthetic fungal medium plus 100 mM NaCl): > 12 µM
Minimal Inhibitory Concentration (MIC) [2]: 0.09 µM
Minimal Inhibitory Concentration (MIC) [3]: 6.0 µM
inhibition of gray mold disease, tomato [4]: 90%
digestion by trypsin [5]: could not be digested by trypsin
